Consider 21 molecules from patent US9120749B2, “Quinoline derivatives and MELK inhibitors containing the same” (ONCOTHERAPY SCIENCE, INC., priority 2010, dated 2015).

The IC50 is the concentration needed to halve the response being measured.

Assay [1] addresses MELK (Homo sapiens, UniProt Q14680). The assay can be described thus: Kinase assay: MELK activity, phosphorylation of FITC-labeled histone H3 peptide measured by IMAP fluorescence polarization. It counts as biochemical. The settings on record: 50 micro-M ATP, FITC-labeled histone H3 peptide substrate, IMAP fluorescence polarization; read-out: IC50 (μM) (kinase assay). In outline:
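A FITC-labelled histone H3 peptide served as substrate, with compounds serially diluted to 1% DMSO final. Reactions were stopped with three volumes of IMAP progressive binding solution. After 0.5 h at room temperature, fluorescence polarization was read.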
In general terms: In fluorescence polarisation assays a small probe gives low polarisation when free and higher when bound to something large.

For assay [2], the system named is T47D cells. The assay can be described thus: Cell-based assay: anti-proliferative activity, Cell Counting Kit-8, 72 hours (T47D). Particulars: Homo sapiens, T47D, 72 h. As for the experimental part: (§1) To evaluate the expression status of MELK in several cell lines, western blot analysis was performed using crude cell lysate collected from those cells. Anti-MELK antibody (clone 31, BD Biosciences) was used to visualize the expression.
(§2) Active candidate inhibitors against MELK were evaluated for their target-specific cytotoxicity using T47D, A549, BT-549, and HT-1197 cells was used for negative control. 100 micro-L of cell suspension was seeded onto 96-well microtiter plate (ViewPlate-96FTC, PerkinElmer). The initial cell concentration of T47D, A549, BT-549, and HT-1197 were 3,000 cells/well, 2,000 cells/well and 2,500 cells/well, respectively. Cellular growth was determined using Cell Counting Kit-8 (DOJINDO) at 72 hours after the exposure of the candidate inhibitors. […] Accurate IC50 values were calculated as described previously.
On the technique in general: Tetrazolium dyes change colour on reduction, which living cells bring about.

Assay [3] deals with A549 cells. The experiment in a line: Cell-based assay: anti-proliferative activity, Cell Counting Kit-8, 72 hours (A549). Particulars: Homo sapiens, A549, 72 h, 72 hours. As for the experimental part: 100 micro-L of cell suspension was seeded onto 96-well microtiter plate (ViewPlate-96FTC, PerkinElmer). The initial cell concentration of T47D, A549, BT-549, and HT-1197 were 3,000 cells/well, 2,000 cells/well and 2,500 cells/well, respectively. Cellular growth was determined using Cell Counting Kit-8 (DOJINDO) at 72 hours after the exposure of the candidate inhibitors. […] Accurate IC50 values were calculated as described previously.

The test system of assay [4] is HT-1197 cells. The assay can be described thus: Cell-based assay: anti-proliferative activity, Cell Counting Kit-8, 72 hours (HT-1197, negative control without MELK expression). The settings on record: Homo sapiens, HT1197, 72 h, HT1197 cells (negative control, no MELK expression), 72 hours. As for the experimental part:
as §1, §2

Sequence of MELK (Q14680 whole entry, looked up): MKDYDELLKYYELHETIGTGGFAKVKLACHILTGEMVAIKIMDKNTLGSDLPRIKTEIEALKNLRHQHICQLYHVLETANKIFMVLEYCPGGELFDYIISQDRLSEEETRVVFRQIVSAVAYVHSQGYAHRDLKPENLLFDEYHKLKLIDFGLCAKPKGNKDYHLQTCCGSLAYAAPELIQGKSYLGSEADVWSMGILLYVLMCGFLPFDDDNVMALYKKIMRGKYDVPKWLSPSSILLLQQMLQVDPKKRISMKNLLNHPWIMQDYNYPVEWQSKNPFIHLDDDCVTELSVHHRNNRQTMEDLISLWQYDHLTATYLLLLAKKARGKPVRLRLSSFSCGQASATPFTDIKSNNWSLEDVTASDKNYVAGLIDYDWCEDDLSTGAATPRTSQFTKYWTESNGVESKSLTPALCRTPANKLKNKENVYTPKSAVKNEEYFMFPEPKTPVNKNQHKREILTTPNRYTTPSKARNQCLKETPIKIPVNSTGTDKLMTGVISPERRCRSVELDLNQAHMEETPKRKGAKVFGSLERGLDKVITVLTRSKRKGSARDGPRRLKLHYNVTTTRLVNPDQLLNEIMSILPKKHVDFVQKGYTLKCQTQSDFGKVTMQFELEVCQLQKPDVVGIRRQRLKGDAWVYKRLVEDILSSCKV

On to `CN1CCN(Cc2ccc(Nc3c(C(=O)C4CC4)cnc4ccc(-c5ccc(O)c(Cl)c5)cc34)cc2)CC1` [Example 406, (6-(3-chloro-4-hydroxyphenyl)-4-(4-((4-methylpiperazin-1-yl)methyl)phenylamino)quinolin-3-yl)(cyclopropyl)methanone], for which the IC50 in assay [1] was determined as 0.019 µM; in assay [2] it was 1.3 µM; in assay [3] it was 0.49 µM; in assay [4], 3.4 µM.
With `CS(=O)(=O)c1cnc2ccc(-c3cc(F)c(O)c(Cl)c3)cc2c1N1CCC(CN2CCCC2)CC1` [Example 407, 2-chloro-6-fluoro-4-(3-(methylsulfonyl)-4-(4-(pyrrolidin-1-ylmethyl)piperidin-1-yl)quinolin-6-yl)phenol], the IC50 in assay [1] worked out at 0.0051 µM; in assay [2] it was 0.75 µM; in assay [3], 3.8 µM; in assay [4], 6.5 µM.
`CS(=O)(=O)c1cnc2ccc(-c3ccc(O)c(Cl)c3)cc2c1N1CCC(CN2CCCC2)CC1` [Example 408, 2-chloro-4-(3-(methylsulfonyl)-4-(4-(pyrrolidin-1-ylmethyl)piperidin-1-yl)quinolin-6-yl)phenol]: the IC50 turned out to be 0.009 µM in assay [1], 8.2 µM in assay [2], 3.2 µM in assay [3] and 9.5 µM in assay [4].
Regarding `COc1cc(-c2ccc3ncc(S(C)(=O)=O)c(Nc4ccc(CN(C)C)cc4)c3c2)cc(Cl)c1O` [Example 410, 2-chloro-4-(4-(4-((dimethylamino)methyl)phenylamino)-3-(methylsulfonyl)quinolin-6-yl)-6-methoxyphenol], the IC50 turned out to be 0.0068 µM in assay [1], 0.58 µM in assay [2], 1.2 µM in assay [3] and 6.2 µM in assay [4].
For `CN(C)Cc1ccc(Nc2c(S(C)(=O)=O)cnc3ccc(-c4ccc(O)c(Cl)c4)cc23)cc1` [Example 411, 2-chloro-4-(4-(4-((dimethylamino)methyl)phenylamino)-3-(methylsulfonyl)quinolin-6-yl)phenol], the IC50 in assay [1] stood at 0.0091 µM; in assay [2], 0.29 µM; in assay [3] it was 0.37 µM; in assay [4], 0.63 µM.
Take `COc1cc(-c2ccc3ncc(S(C)(=O)=O)c(N4CCC(CN5CCCC5)CC4)c3c2)cc(Cl)c1O` [Example 412, 2-chloro-6-methoxy-4-(3-(methylsulfonyl)-4-(4-(pyrrolidin-1-ylmethyl)piperidin-1-yl)quinolin-6-yl)phenol]: the IC50 in assay [1] is 0.002 µM; in assay [2], 1.4 µM; in assay [3], 0.58 µM; in assay [4], 2.5 µM.
Consider `CC(=O)c1cnc2ccc(-c3cnc(C#N)nc3)cc2c1Nc1ccc(CN2CCCC2)cc1` [Example 413, 5-(3-acetyl-4-(4-(pyrrolidin-1-ylmethyl)phenylamino)quinolin-6-yl)pyrimidine-2-carbonitrile], for which the IC50 is 0.0029 µM in assay [1], 0.35 µM in assay [2], 1.7 µM in assay [3] and 1.2 µM in assay [4].
Take `CN(C)Cc1ccc(Nc2c(C(=O)C3CC3)cnc3ccc(-c4cc(Cl)c(O)c(Cl)c4)cc23)nc1` [Example 417, cyclopropyl(6-(3,5-dichloro-4-hydroxyphenyl)-4-(5-((dimethylamino)methyl)pyridin-2-ylamino)quinolin-3-yl)methanone]: the IC50 in assay [1] was 0.0099 µM; in assay [2], 1.7 µM; in assay [3], 1.8 µM; in assay [4], 22 µM.
As to `COc1cc(-c2ccc3ncc(S(C)(=O)=O)c(N[C@H]4CC[C@H](CN(C)C)CC4)c3c2)cc(Cl)c1O` [Example 422], the IC50 stood at 0.0041 µM in assay [1], 0.7 µM in assay [2], 0.65 µM in assay [3] and 4.4 µM in assay [4].
Consider `CN(C)C[C@H]1CC[C@H](Nc2c(S(C)(=O)=O)cnc3ccc(-c4ccc(O)c(Cl)c4)cc23)CC1` [Example 424], for which the IC50 in assay [1] is 0.013 µM; in assay [2], 0.43 µM; in assay [3], 0.79 µM; in assay [4] it was 1.1 µM.
For `CN(C)C[C@H]1CC[C@H](Nc2c(C(=O)C3CC3)cnc3ccc(-c4cnc(C#N)nc4)cc23)CC1` [Example 426], the IC50 turned out to be 0.0025 µM in assay [1], 0.43 µM in assay [2], 1.5 µM in assay [3] and 3.7 µM in assay [4].
Consider `COc1cc(-c2ccc3ncc(C#N)c(N4CCC(CN5CCCC5)CC4)c3c2)cc(Cl)c1O` [Example 428, 6-(3-chloro-4-hydroxy-5-methoxyphenyl)-4-(4-(pyrrolidin-1-ylmethyl)piperidin-1-yl)quinoline-3-carbonitrile], for which the IC50 in assay [1] amounted to 0.0037 µM; in assay [2] it was 7.6 µM; in assay [3], 2.6 µM; in assay [4] it was 13 µM.
Regarding `COc1cc(-c2ccc3ncc(C(=O)C4CC4)c(Nc4ccc(CN(C)C)cn4)c3c2)cc(Cl)c1O` [Example 429, (6-(3-chloro-4-hydroxy-5-methoxyphenyl)-4-(5-((dimethylamino)methyl)pyridin-2-ylamino)quinolin-3-yl)(cyclopropyl)methanone], the IC50 in assay [1] was determined as 0.019 µM; in assay [2], 3.8 µM; in assay [3], 5.1 µM; in assay [4], 19 µM.
Take `CN1CCN(c2ccc(-c3c(C(=O)C4CC4)cnc4ccc(-c5cc(Cl)c(O)c(Cl)c5)cc34)cc2)CC1` [Example 430, cyclopropyl(6-(3,5-dichloro-4-hydroxyphenyl)-4-(4-(4-methylpiperazin-1-yl)phenyl)quinolin-3-yl)methanone]: the IC50 in assay [1] came out at 0.033 µM; in assay [2] it was 1.3 µM; in assay [3], 2.7 µM; in assay [4] it was 9.2 µM.
In the case of `CN(C)Cc1ccc(-c2c(C(=O)C3CC3)cnc3ccc(-c4cc(Cl)c(O)c(Cl)c4)cc23)cc1` [Example 431, cyclopropyl(6-(3,5-dichloro-4-hydroxyphenyl)-4-(4-((dimethylamino)methyl)phenyl)quinolin-3-yl)methanone], the IC50 in assay [1] stood at 0.0039 µM; in assay [2], 0.97 µM; in assay [3], 0.59 µM; in assay [4], 7.5 µM.
In the case of `CN(C)Cc1ccc(Nc2c(C#N)cnc3ccc(-c4cc(F)c(O)c(Cl)c4)cc23)cc1` [Example 432, 6-(3-chloro-5-fluoro-4-hydroxyphenyl)-4-(4-((dimethylamino)methyl)phenylamino)quinoline-3-carbonitrile], the concentration for half-maximal inhibition (IC50) in assay [1] stood at 0.056 µM; in assay [2], 0.98 µM; in assay [3], 1.1 µM; in assay [4], 4.9 µM.
With `N#Cc1cnc2ccc(-c3ccc(O)c(Cl)c3)cc2c1N1CCC(CN2CCCC2)CC1` [Example 433, 6-(3-chloro-4-hydroxyphenyl)-4-(4-(pyrrolidin-1-ylmethyl)piperidin-1-yl)quinoline-3-carbonitrile], the IC50 is 0.043 µM in assay [1], 0.54 µM in assay [2], 0.7 µM in assay [3] and 3.7 µM in assay [4].
`N#Cc1cnc2ccc(-c3cc(F)c(O)c(Cl)c3)cc2c1N1CCC(CN2CCCC2)CC1` [Example 434, 6-(3-chloro-5-fluoro-4-hydroxyphenyl)-4-(4-(pyrrolidin-1-ylmethyl)piperidin-1-yl)quinoline-3-carbonitrile]: the IC50 in assay [1] worked out at 0.035 µM; in assay [2], 0.45 µM; in assay [3], 1.1 µM; in assay [4], 10 µM.
The like results for `CN(C)Cc1ccc(Nc2c(C(=O)C3CC3)cnc3ccc(-c4cc(F)c(O)c(Cl)c4)cc23)nc1` [Example 435, (6-(3-chloro-5-fluoro-4-hydroxyphenyl)-4-(5-((dimethylamino)methyl)pyridin-2-ylamino)quinolin-3-yl)(cyclopropyl)methanone] were, in that order, 0.049 µM, 2.7 µM, 2.8 µM and 12 µM.
`COc1cc(-c2ccc3ncc(C(=O)C4CC4)c(-c4ccc(CN5CCCC5)cc4)c3c2)cc(Cl)c1O` [Example 436, (6-(3-chloro-4-hydroxy-5-methoxyphenyl)-4-(4-(pyrrolidin-1-ylmethyl)phenyl)quinolin-3-yl)(cyclopropyl)methanone]: the IC50 was found to be 0.014 µM in assay [1], 0.63 µM in assay [2], 0.63 µM in assay [3] and 4.9 µM in assay [4].
Take `CN(C)Cc1ccc(Nc2c(C(=O)C3CC3)cnc3ccc(-c4cnc(C#N)nc4)cc23)nc1` [Example 439, 5-(3-(cyclopropanecarbonyl)-4-(5-((dimethylamino)methyl)pyridin-2-ylamino)quinolin-6-yl)pyrimidine-2-carbonitrile]: the IC50 turned out to be 0.058 µM in assay [1], 0.61 µM in assay [2], 4 µM in assay [3] and 3.6 µM in assay [4].
